Legend:
[1] = target: T1, MAO B (Homo sapiens, UniProt P27338); test: MAO B inhibition, kynuramine fluorescence assay; type: biochemical; conditions: for Inhibition of MAO B, % inhibition @ conc.: @ 500 µM
T1 sequence (P27338 1-520): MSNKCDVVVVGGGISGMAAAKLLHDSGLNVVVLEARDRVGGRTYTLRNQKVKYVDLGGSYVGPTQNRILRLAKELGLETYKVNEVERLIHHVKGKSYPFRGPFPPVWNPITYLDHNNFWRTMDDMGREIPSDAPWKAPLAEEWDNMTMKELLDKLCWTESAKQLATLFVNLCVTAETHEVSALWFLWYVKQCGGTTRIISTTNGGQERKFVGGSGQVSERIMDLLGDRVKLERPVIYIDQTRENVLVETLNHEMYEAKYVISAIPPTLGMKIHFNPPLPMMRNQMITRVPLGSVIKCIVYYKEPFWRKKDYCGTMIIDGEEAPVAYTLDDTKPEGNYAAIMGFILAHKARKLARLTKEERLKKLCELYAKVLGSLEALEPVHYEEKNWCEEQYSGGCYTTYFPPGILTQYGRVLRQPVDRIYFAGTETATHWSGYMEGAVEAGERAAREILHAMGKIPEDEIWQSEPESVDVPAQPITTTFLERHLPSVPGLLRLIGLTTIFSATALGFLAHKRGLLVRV

[2] = target: T2, MAO A (Homo sapiens, UniProt P21397); test: MAO A inhibition, kynuramine fluorescence assay; type: biochemical
T2 sequence (P21397 1-527): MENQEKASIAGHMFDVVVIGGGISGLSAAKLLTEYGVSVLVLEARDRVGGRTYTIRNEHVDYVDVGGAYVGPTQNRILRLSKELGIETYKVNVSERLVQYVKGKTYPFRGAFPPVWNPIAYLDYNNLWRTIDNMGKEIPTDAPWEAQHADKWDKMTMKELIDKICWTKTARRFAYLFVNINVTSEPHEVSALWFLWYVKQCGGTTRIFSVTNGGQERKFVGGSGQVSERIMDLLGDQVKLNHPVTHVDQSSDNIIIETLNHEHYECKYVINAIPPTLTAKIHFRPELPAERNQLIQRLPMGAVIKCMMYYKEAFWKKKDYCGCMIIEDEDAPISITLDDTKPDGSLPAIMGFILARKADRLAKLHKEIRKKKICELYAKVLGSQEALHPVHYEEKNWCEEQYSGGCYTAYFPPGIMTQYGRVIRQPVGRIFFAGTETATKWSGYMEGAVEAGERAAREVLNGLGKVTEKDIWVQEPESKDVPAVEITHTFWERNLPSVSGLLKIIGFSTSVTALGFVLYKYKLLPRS

[3] = target: T3, LSD1 (Homo sapiens, UniProt O60341); test: LSD1 in-vitro inhibition, horseradish peroxidase; type: biochemical; conditions: for Inhibition of LSD1, % inhibition @ conc.: @ 100 µM
[4] = target: T3, LSD1; conditions: MAO inhibitors; cited from earlier work
[5] = Solubility in cell culture media; type: physicochemical
[6] = tested on: H3K4me2 in MCF7 cells; test: Western blot of H3K4 dimethylation in MCF7 cells; type: cell-based; conditions: 24 hours incubation

Structure (SMILES) | Inhibition of LSD1, % inhibition @ conc. [3] | other results
C#CCNCCCC[C@H](NC(=O)c1ccccc1)C(=O)OC(C)(C)C [1a] |  | Inhibition of MAO B, % inhibition @ conc. [1]: n.i. ^a @ 500 µM; Inhibition of MAO A, % inhibition @ conc. ([2]; @ 100 µM): n.i. @ 100 µM
C#CCN(C)CC(O)COc1ccc(-c2ccccc2)cc1 (stereo not drawn) [5b] |  | Inhibition of MAO A, % inhibition @ conc. ([2]; @ 10 µM): n.i. @ 10 µM
C#CCNCC(O)CNc1ccc(-c2ccccc2)cc1 (stereo not drawn) [6a] | n.i. @ 100 µM | LSD1 inhibition in words [3]: inactive
C#CCN(C)CC(O)COc1ccc(CCC(=O)OC)cc1 (stereo not drawn) [5p] | n.i. @ 100 µM | 
C#CCNCC(O)COc1ccc(C(N)=O)cc1 (stereo not drawn) [5q] | n.i. @ 100 µM | 
C#CCN(C)[C@H](C)Cc1ccccc1 [deprenyl] |  | Inhibitory activity on LSD1 [4]: millimolar range
C#CCNCC(O)COc1ccc(-c2ccccc2)cc1 (stereo not drawn) [5a, 3-(Prop-2-ynylamino)-2-hydroxy-1-(biphenyl-4-yloxy)propane] |  | Solubility in cell culture media [5]: soluble; H3K4 dimethylation level (western blot) [6]: increased levels of H3K4 dimethylation
C#CCNCC(O)COc1ccc(-c2cc(Cl)cc(Cl)c2)cc1 (stereo not drawn) [5k] | n.i. @ 100 µM | 
C#CCN(C)CC(O)COc1ccc2ccccc2c1 (stereo not drawn) [5d] |  | MAO-B inhibition in words [1]: only limited inhibition
C#CCN(C)CC(O)COc1ccc(C(N)=O)cc1 (stereo not drawn) [5r] | n.i. @ 100 µM | 
C#CCN(C)CC(O)COc1ccc(C(=O)OC)cc1 (stereo not drawn) [5l] | n.i. @ 100 µM | 
C#CCNCC(O)COc1ccc(CC(=O)OC)cc1 (stereo not drawn) [5o] | n.i. @ 100 µM | 
OC(CNC1CC1)COc1ccc(-c2ccccc2)cc1 (stereo not drawn) [7a] | n.i. @ 100 µM | 
C#CCN(C)CC(O)COc1ccc(CC(=O)OC)cc1 (stereo not drawn) [5n] | n.i. @ 100 µM | 
C#CCN(C)CCCOc1cccc(NC(=O)c2ccccc2)c1 [4b] |  | Solubility in cell culture media [5]: soluble; H3K4 dimethylation level (western blot) [6]: increased levels of H3K4 dimethylation
OC(CNC1CC1)COc1ccc2ccccc2c1 (stereo not drawn) [7b] | n.i. @ 100 µM | 
C#CCNCC(O)COc1ccc(-c2ccc(Cl)cc2Cl)cc1 (stereo not drawn) [5j] | n.i. @ 100 µM | 
C#CCNCC(O)COc1ccc(-c2ccc(Br)cc2)cc1 (stereo not drawn) [5i] | n.i. @ 100 µM | 
C#CCN(C)Cc1ccccc1 [pargyline] |  | Inhibitory activity on LSD1 [4]: millimolar range
C#CCNCC(O)CN(C)c1ccc(-c2ccccc2)cc1 (stereo not drawn) [6b, 1-(N-Methyl-4-phenylanilino)-3-(prop-2-ynylamino)propan-2-ol] | n.i. @ 100 µM | LSD1 inhibition in words [3]: inactive
C#CCNCC(O)COc1ccc(C(=O)OC)cc1 (stereo not drawn) [5m] | n.i. @ 100 µM | 
C#CCN(C)CCCC[C@H](NC(=O)OCc1ccccc1)C(=O)OCc1ccccc1 [2b] |  | Inhibition of MAO B, % inhibition @ conc. [1]: n.i. @ 500 µM

Source: PMC4361900 (Journal of medicinal chemistry, 2013)
